Experimental data from patent US6518243B1, “Desleucyl glycopeptide antibiotics and methods of making same” (Trustees of Princeton University, priority 1999, dated 2003).

Assays:
Assay in all cases: Zone of inhibition screen, 96 well agar array format
Assay type in all cases: cell-based
Set-up in all cases: scale not given here
E. faecalis (CL 4877) = test system: E. faecalis (CL 4877)
Summary of the method: (§1)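 Each compound was tested for antibacterial activity against a shared bacterial panel, with screening carried out on agar in a 96-well array.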

[1] = test system: S. epidermidis (ATCC 12228)
Summary of the method: as §1

S. aureus (ATCC 29213) = settings: zone of inhibition relative to 1 mg/ml p-chlorobiphenylvancomycin
Summary of the method: as §1

[2] = zone of inhibition relative to 1 mg/ml p-chlorobiphenylvancomycin
[3] = zone of inhibition relative to 1 mg/ml stock solution of p-chlorobiphenylvancomycin

Compound | zone score, E. faecalis CL 4877 (E. faecalis (CL 4877); [2]) | zone score, S. epidermidis ATCC 12228 [1, 2] | zone score, S. aureus ATCC 29213 (S. aureus (ATCC 29213)) | further results
CC(NC=O)C(=O)NC1C(=O)NC(CC(N)=O)C(=O)NC2C(=O)NC3C(=O)NC(C(=O)NC(C(=O)O)c4cc(O)cc(O)c4-c4cc3ccc4O)C(O)c3ccc(c(Cl)c3)Oc3cc2cc(c3OC2OC(CO)C(O)C(O)C2OC2CC(C)(NCc3ccc(-c4ccc(Cl)cc4)cc3)C(O)C(C)O2)Oc2ccc(cc2Cl)C1O (mixture of isomers) [Compound 325] | 2 | 2 | – | –
CC1OC(OC2C(Oc3c4cc5cc3Oc3ccc(cc3Cl)C(O)C3NC(=O)C(NC(=O)C5NC(=O)C(CC(N)=O)NC(=O)C(NC(=O)C(N)CC(N)=O)C(O)c5ccc(c(Cl)c5)O4)c4ccc(O)c(c4)-c4c(O)cc(O)cc4C(C(=O)O)NC3=O)OC(CO)C(O)C2O)CC(C)(NCc2ccc(-c3ccc(Cl)cc3)cc2)C1O (stereo not drawn) [Compound 53] | – | – | – | zone score, E. faecalis CL 4877 (E. faecalis (CL 4877); [3]): 2; zone score, S. epidermidis ATCC 12228 [1, 3]: 2
CC(=O)N1CCC(C(=O)NC2C(=O)NC(CC(N)=O)C(=O)NC3C(=O)NC4C(=O)NC(C(=O)NC(C(=O)O)c5cc(O)cc(O)c5-c5cc4ccc5O)C(O)c4ccc(c(Cl)c4)Oc4cc3cc(c4OC3OC(CO)C(O)C(O)C3OC3CC(C)(NCc4ccc(-c5ccc(Cl)cc5)cc4)C(O)C(C)O3)Oc3ccc(cc3Cl)C2O)CC1 (stereo not drawn) [Compound 99] | – | – | – | zone score, S. epidermidis ATCC 12228 [1, 3]: 2
Cc1cn(CC(=O)NC2C(=O)NC(CC(N)=O)C(=O)NC3C(=O)NC4C(=O)NC(C(=O)NC(C(=O)O)c5cc(O)cc(O)c5-c5cc4ccc5O)C(O)c4ccc(c(Cl)c4)Oc4cc3cc(c4OC3OC(CO)C(O)C(O)C3OC3CC(C)(NCc4ccc(-c5ccc(Cl)cc5)cc4)C(O)C(C)O3)Oc3ccc(cc3Cl)C2O)c(=O)[nH]c1=O (stereo not drawn) [Compound 207] | – | 2 | – | –
Cc1cnc(C(=O)NC2C(=O)NC(CC(N)=O)C(=O)NC3C(=O)NC4C(=O)NC(C(=O)NC(C(=O)O)c5cc(O)cc(O)c5-c5cc4ccc5O)C(O)c4ccc(c(Cl)c4)Oc4cc3cc(c4OC3OC(CO)C(O)C(O)C3OC3CC(C)(NCc4ccc(-c5ccc(Cl)cc5)cc4)C(O)C(C)O3)Oc3ccc(cc3Cl)C2O)cn1 (stereo not drawn) [Compound 243] | 2 | – | 2 | –
CC1OC(OC2C(Oc3c4cc5cc3Oc3ccc(cc3Cl)C(O)C3NC(=O)C(NC(=O)C5NC(=O)C(CC(N)=O)NC(=O)C(NC(=O)c5cccc(SC(F)(F)F)c5)C(O)c5ccc(c(Cl)c5)O4)c4ccc(O)c(c4)-c4c(O)cc(O)cc4C(C(=O)O)NC3=O)OC(CO)C(O)C2O)CC(C)(NCc2ccc(-c3ccc(Cl)cc3)cc2)C1O (stereo not drawn) [Compound 248] | 2 | – | 2 | –
CC(=O)Oc1cc(C(=O)NC2C(=O)NC(CC(N)=O)C(=O)NC3C(=O)NC4C(=O)NC(C(=O)NC(C(=O)O)c5cc(O)cc(O)c5-c5cc4ccc5O)C(O)c4ccc(c(Cl)c4)Oc4cc3cc(c4OC3OC(CO)C(O)C(O)C3OC3CC(C)(NCc4ccc(-c5ccc(Cl)cc5)cc4)C(O)C(C)O3)Oc3ccc(cc3Cl)C2O)cc(OC(C)=O)c1OC(C)=O (stereo not drawn) [Compound 250] | – | 2 | – | –
CC1OC(OC2C(Oc3c4cc5cc3Oc3ccc(cc3Cl)C(O)C3NC(=O)C(NC(=O)C5NC(=O)C(CC(N)=O)NC(=O)C(NC(=O)Cc5ccc(F)c(F)c5)C(O)c5ccc(c(Cl)c5)O4)c4ccc(O)c(c4)-c4c(O)cc(O)cc4C(C(=O)O)NC3=O)OC(CO)C(O)C2O)CC(C)(NCc2ccc(-c3ccc(Cl)cc3)cc2)C1O (stereo not drawn) [Compound 252] | – | 2 | – | –
CC1OC(OC2C(Oc3c4cc5cc3Oc3ccc(cc3Cl)C(O)C3NC(=O)C(NC(=O)C5NC(=O)C(CC(N)=O)NC(=O)C(NC(=O)c5cc(C(F)(F)F)cc(C(F)(F)F)c5)C(O)c5ccc(c(Cl)c5)O4)c4ccc(O)c(c4)-c4c(O)cc(O)cc4C(C(=O)O)NC3=O)OC(CO)C(O)C2O)CC(C)(NCc2ccc(-c3ccc(Cl)cc3)cc2)C1O (stereo not drawn) [Compound 254] | 2 | – | 2 | –
CC1OC(OC2C(Oc3c4cc5cc3Oc3ccc(cc3Cl)C(O)C3NC(=O)C(NC(=O)C5NC(=O)C(CC(N)=O)NC(=O)C(NC(=O)c5cc(O)cc(O)c5)C(O)c5ccc(c(Cl)c5)O4)c4ccc(O)c(c4)-c4c(O)cc(O)cc4C(C(=O)O)NC3=O)OC(CO)C(O)C2O)CC(C)(NCc2ccc(-c3ccc(Cl)cc3)cc2)C1O (stereo not drawn) [Compound 255] | 2 | – | 2 | –
C[C@H]1O[C@H](O[C@H]2[C@H](Oc3c4cc5cc3Oc3ccc(cc3Cl)[C@@H](O)[C@@H](NC(=O)c3nc(N)n[nH]3)C(=O)N[C@@H](CC(N)=O)C(=O)N[C@H]5C(=O)N[C@H]3C(=O)N[C@H](C(=O)N[C@@H](C(=O)O)c5cc(O)cc(O)c5-c5cc3ccc5O)[C@H](O)c3ccc(c(Cl)c3)O4)O[C@H](CO)[C@@H](O)[C@@H]2O)C[C@@](C)(NCc2ccc(-c3ccc(Cl)cc3)cc2)[C@H]1O [Compound 256] | 2 | – | 2 | –
CC1OC(OC2C(Oc3c4cc5cc3Oc3ccc(cc3Cl)C(O)C3NC(=O)C(NC(=O)C5NC(=O)C(CC(N)=O)NC(=O)C(NC(=O)c5cccc(F)c5)C(O)c5ccc(c(Cl)c5)O4)c4ccc(O)c(c4)-c4c(O)cc(O)cc4C(C(=O)O)NC3=O)OC(CO)C(O)C2O)CC(C)(NCc2ccc(-c3ccc(Cl)cc3)cc2)C1O (stereo not drawn) [Compound 259] | – | 2 | – | –
C[C@H]1O[C@H](O[C@H]2[C@H](Oc3c4cc5cc3Oc3ccc(cc3Cl)[C@@H](O)[C@@H](NC(=O)c3ccoc3)C(=O)N[C@@H](CC(N)=O)C(=O)N[C@H]5C(=O)N[C@H]3C(=O)N[C@H](C(=O)N[C@@H](C(=O)O)c5cc(O)cc(O)c5-c5cc3ccc5O)[C@H](O)c3ccc(c(Cl)c3)O4)O[C@H](CO)[C@@H](O)[C@@H]2O)C[C@@](C)(NCc2ccc(-c3ccc(Cl)cc3)cc2)[C@H]1O [Compound 260] | – | 2 | – | –
CC(=O)Nc1ccc(C(=O)NC2C(=O)NC(CC(N)=O)C(=O)NC3C(=O)NC4C(=O)NC(C(=O)NC(C(=O)O)c5cc(O)cc(O)c5-c5cc4ccc5O)C(O)c4ccc(c(Cl)c4)Oc4cc3cc(c4OC3OC(CO)C(O)C(O)C3OC3CC(C)(NCc4ccc(-c5ccc(Cl)cc5)cc4)C(O)C(C)O3)Oc3ccc(cc3Cl)C2O)cc1 (stereo not drawn) [Compound 265] | 2 | – | 2 | –
COc1ccc(C=CC(=O)NC2C(=O)NC(CC(N)=O)C(=O)NC3C(=O)NC4C(=O)NC(C(=O)NC(C(=O)O)c5cc(O)cc(O)c5-c5cc4ccc5O)C(O)c4ccc(c(Cl)c4)Oc4cc3cc(c4OC3OC(CO)C(O)C(O)C3OC3CC(C)(NCc4ccc(-c5ccc(Cl)cc5)cc4)C(O)C(C)O3)Oc3ccc(cc3Cl)C2O)cc1 (stereo not drawn) [Compound 273] | – | 2 | – | –
CC1OC(OC2C(Oc3c4cc5cc3Oc3ccc(cc3Cl)C(O)C3NC(=O)C(NC(=O)C5NC(=O)C(CC(N)=O)NC(=O)C(NC(=O)c5ccc(O)nc5)C(O)c5ccc(c(Cl)c5)O4)c4ccc(O)c(c4)-c4c(O)cc(O)cc4C(C(=O)O)NC3=O)OC(CO)C(O)C2O)CC(C)(NCc2ccc(-c3ccc(Cl)cc3)cc2)C1O (stereo not drawn) [Compound 276] | – | 2 | – | –
CC(=O)CCCCC(=O)NC1C(=O)NC(CC(N)=O)C(=O)NC2C(=O)NC3C(=O)NC(C(=O)NC(C(=O)O)c4cc(O)cc(O)c4-c4cc3ccc4O)C(O)c3ccc(c(Cl)c3)Oc3cc2cc(c3OC2OC(CO)C(O)C(O)C2OC2CC(C)(NCc3ccc(-c4ccc(Cl)cc4)cc3)C(O)C(C)O2)Oc2ccc(cc2Cl)C1O (stereo not drawn) [Compound 278] | 2 | – | 2 | –
CC1OC(OC2C(Oc3c4cc5cc3Oc3ccc(cc3Cl)C(O)C3NC(=O)C(NC(=O)C5NC(=O)C(CC(N)=O)NC(=O)C(NC(=O)c5ccc(=O)oc5)C(O)c5ccc(c(Cl)c5)O4)c4ccc(O)c(c4)-c4c(O)cc(O)cc4C(C(=O)O)NC3=O)OC(CO)C(O)C2O)CC(C)(NCc2ccc(-c3ccc(Cl)cc3)cc2)C1O (stereo not drawn) [Compound 282] | 2 | – | 2 | –
COC(=O)C=CC(=O)NC1C(=O)NC(CC(N)=O)C(=O)NC2C(=O)NC3C(=O)NC(C(=O)NC(C(=O)O)c4cc(O)cc(O)c4-c4cc3ccc4O)C(O)c3ccc(c(Cl)c3)Oc3cc2cc(c3OC2OC(CO)C(O)C(O)C2OC2CC(C)(NCc3ccc(-c4ccc(Cl)cc4)cc3)C(O)C(C)O2)Oc2ccc(cc2Cl)C1O (stereo not drawn) [Compound 297] | 2 | – | 2 | –
CC1OC(OC2C(Oc3c4cc5cc3Oc3ccc(cc3Cl)C(O)C3NC(=O)C(NC(=O)C5NC(=O)C(CC(N)=O)NC(=O)C(NC(=O)c5ccc(=O)[nH]n5)C(O)c5ccc(c(Cl)c5)O4)c4ccc(O)c(c4)-c4c(O)cc(O)cc4C(C(=O)O)NC3=O)OC(CO)C(O)C2O)CC(C)(NCc2ccc(-c3ccc(Cl)cc3)cc2)C1O (stereo not drawn) [Compound 298] | 2 | – | 2 | –
COC(=O)CCCC(=O)NC1C(=O)NC(CC(N)=O)C(=O)NC2C(=O)NC3C(=O)NC(C(=O)NC(C(=O)O)c4cc(O)cc(O)c4-c4cc3ccc4O)C(O)c3ccc(c(Cl)c3)Oc3cc2cc(c3OC2OC(CO)C(O)C(O)C2OC2CC(C)(NCc3ccc(-c4ccc(Cl)cc4)cc3)C(O)C(C)O2)Oc2ccc(cc2Cl)C1O (stereo not drawn) [Compound 304] | – | 2 | – | –
COC(=O)CCC(=O)NC1C(=O)NC(CC(N)=O)C(=O)NC2C(=O)NC3C(=O)NC(C(=O)NC(C(=O)O)c4cc(O)cc(O)c4-c4cc3ccc4O)C(O)c3ccc(c(Cl)c3)Oc3cc2cc(c3OC2OC(CO)C(O)C(O)C2OC2CC(C)(NCc3ccc(-c4ccc(Cl)cc4)cc3)C(O)C(C)O2)Oc2ccc(cc2Cl)C1O (stereo not drawn) [Compound 305] | – | 2 | – | –
CC1OC(OC2C(Oc3c4cc5cc3Oc3ccc(cc3Cl)C(O)C3NC(=O)C(NC(=O)C5NC(=O)C(CC(N)=O)NC(=O)C(NC(=O)Cc5cccs5)C(O)c5ccc(c(Cl)c5)O4)c4ccc(O)c(c4)-c4c(O)cc(O)cc4C(C(=O)O)NC3=O)OC(CO)C(O)C2O)CC(C)(NCc2ccc(-c3ccc(Cl)cc3)cc2)C1O (stereo not drawn) [Compound 318] | – | 2 | – | –
CC1OC(OC2C(Oc3c4cc5cc3Oc3ccc(cc3Cl)C(O)C3NC(=O)C(NC(=O)C5NC(=O)C(CC(N)=O)NC(=O)C(NC(=O)C(N)=O)C(O)c5ccc(c(Cl)c5)O4)c4ccc(O)c(c4)-c4c(O)cc(O)cc4C(C(=O)O)NC3=O)OC(CO)C(O)C2O)CC(C)(NCc2ccc(-c3ccc(Cl)cc3)cc2)C1O (stereo not drawn) [Compound 327] | – | 2 | – | –
